Results: patent US9833520B2, “Labeled, non-peptidic, multivalent integrin antagonist compounds; methods for synthesis and uses thereof” (The Methodist Hospital Research Institute, priority 2011, dated 2017)
“Also recorded” adds a separate entry of the source. Like-named read-outs stand apart in the source and are kept apart here.

Columns and labels:
purified human αvβ3 = target: T1, purified human αvβ3 (Homo sapiens, UniProt P05106+P06756); experiment: ELISA: competitive inhibition of biotinylated vitronectin binding to immobilized purified integrin αvβ3; conditions: for in vitro measured IC50 increase from IA-monomer: compared to IA-monomer
T1 construct: purchased Chemicon International, Temecula, Calif., USA
Protocol: In vitro Binding Assay. […] Purified integrin αvβ3 protein (Chemicon International, Temecula, Calif., USA) was applied to 96-well polystyrene microtiter plates at 0.1 μg/well. After overnight incubation at 4° C., the plates were washed, and then blocked with milk solution (KPL, Inc. Gaithersburg, Md., USA) at room temperature for 2 hr. The blocking buffer was removed, and the plates were inoculated in quadruplicate with bivalent IAs with a typical starting concentration of 125 nM. Serial dilutions were prepared in the 96-well plates using multichannel pipettes. Biotinylated vitronectin solution (0.1 μg/well) was added to each well as a standard competitor. The plates were incubated at room temperature for 3 h, washed, and the bound vitronectin was detected using NeutrAvidin-HRP conjugate at 0.01 μg/well (Pierce, Rockford, Ill., USA) and LumiGlo® chemiluminescent substrate system (KPL, Inc.). The luminescence was read using a FLUOstar™ OPTIMA Microplate Reader (Durham, N.C., USA). […] (Peptides International, Inc., Louisville, Ky., USA) was also tested using the same method as described above.
Briefly, purified integrin αvβ3 protein (Chemicon International, Temecula, Calif., USA) was applied to 96-well polystyrene microtiter plates for overnight incubation at 4° C. The plates were washed and then blocked with milk solution (KPL, Inc., Gaithersburg, Md., USA) and the plates were inoculated in quadruplicate with multivalent IAs at different concentrations. Biotinylated vitronectin solution was added to each well as a standard competitor. The plates were incubated at room temperature, washed, and the bound vitronectin detected using NeutrAvidin-HRP® conjugate (Pierce, Rockford, Ill., USA) and LumiGlo® chemiluminescent substrate system (KPL, Inc., Gaithersburg, Md., USA). The luminescence was read using a FLUOstar® OPTIMA Microplate Reader (Durham, N.C., USA).
In vitro Binding Affinity Assay. Purified integrin αvβ3 protein (Chemicon International, Temecula, Calif., USA) was applied to 96-well polystyrene microtiter plates at 1 μg/well. After overnight incubation at 4° C., the plates were washed and then blocked with milk solution (KPL, Inc., Gaithersburg, Md., USA) at room temperature for 2 hr. The blocking buffer was removed, and the plates were inoculated in quadruplicate with bivalent IAs with a typical starting concentration of 125 nM. Serial dilutions were prepared in the 96-well plates using multichannel pipettes. Biotinylated vitronectin solution (0.1 μg/well) was added to each well as a standard competitor.
The plates were incubated at room temperature for 3 hr, washed, and the bound vitronectin was detected using NeutrAvidin-HRP conjugate at 0.01 μg/well (Pierce, Rockford, Ill., USA) and LumiGlo® chemiluminescent substrate system (KPL, Inc.). The luminescence was read using a FLUOstar OPTIMA Microplate Reader (Durham, N.C., USA). […] It measured competitive binding of the integrin antagonist and biotinylated human vitronectin for the immobilized receptor αvβ3.

[1] = system: U-87 MG (ATCC HTB-14) glioblastoma cells over-expressing integrin αvβ3; experiment: Fluorescence microscopy probe binding assay in U-87 cells; assay type: cell-based, human; conditions: blocking dose 20 μmol/L
Protocol: Fluorescence Microscopy Studies. […] For fluorescence microscopy studies, 1×10^4 U-87 cells were cultured on 35 mm MatTek glass bottom culture dishes. After 24 hr, cells were washed with PBS and then incubated with bivalent-IA-Cy5.5 (200 nM) at 37° C. for 45 min. Integrin specificity of the probe binding was verified by incubating U-87 cells with and without a blocking dose of the non-fluorescent bivalent IA (20 μmol/L). After the incubation period, the cells were washed three times with ice-cold PBS. The fluorescence signal of the cells was recorded using FluoView® 1000 Laser Scanning Confocal Microscope (Olympus, Center Valley, Pa., USA) under a 40× oil-immersion objective, with laser excitation at 675 nm (Cy5.5). A differential interference contrast image was also recorded so that the origin of fluorescent signals could be confirmed.

[2] = Example 1 bivalent IA study, FIG. 4, read-out: IC50 of vitronectin binding to αvβ3 (ELISA)
[3] = monomer/dimer/trimer study, FIG. 28, Table 5, read-out: IC50 (nM) ELISA

Compound: NC(CCCCCC(=O)NCCS(=O)(=O)N[C@@H](CNC(=O)c1ccc(OCCNC2=NCCCN2)cc1)C(=O)O)C(=O)NCCS(=O)(=O)N[C@@H](CNC(=O)c1ccc(OCCNC2=NCCCN2)cc1)C(=O)O (stereo partly drawn) [bivalent IA]
- integrin αvβ3 binding affinity compared to monomer (purified human αvβ3): significantly higher integrin avb3-binding affinity and specificity than IA monomer
- IC50 (purified human αvβ3; [2]): 0.4 ± 0.11 nM
- in vitro measured IC50 increase from IA-monomer (purified human αvβ3): 28 fold
- improvement in receptor affinity (IC50) over c-[RGDfV] (purified human αvβ3; compared to c-[RGDfV]): 10 fold
- IC50 (purified human αvβ3; [3]): 0.44 nM
- blocking of bivalent-IA-Cy5.5 binding/endocytosis in U-87 cells [1]: complete blockage of endocytosis of the imaging probes; also recorded: effectively blocked

Compound: O=C(NCCS(=O)(=O)N[C@@H](CNC(=O)c1ccc(OCCNC2=NCCCN2)cc1)C(=O)O)OCCN(CCOC(=O)NCCS(=O)(=O)N[C@@H](CNC(=O)c1ccc(OCCNC2=NCCCN2)cc1)C(=O)O)CCOC(=O)NCCS(=O)(=O)N[C@@H](CNC(=O)c1ccc(OCCNC2=NCCCN2)cc1)C(=O)O [IA trimer]
- increase in IC50 from the dimer to trimer (purified human αvβ3; compared to IA dimer): 2 fold
- in vitro measured IC50 increase from IA-monomer (purified human αvβ3): 56 fold
- IC50 (purified human αvβ3; [3]): 0.22 nM

Compound: NCCS(=O)(=O)N[C@@H](CNC(=O)c1ccc(OCCNC2=NCCCN2)cc1)C(=O)O [IA, 4-[2-(3,4,5,6-tetrahydropyrimidine-2-ylamino)ethyloxy]benzoyl-2-(S)-aminoethylsulfonyl-amino-β-alanine]
- IC50 (purified human αvβ3; [2]): 22.3 ± 4.51 nM
- IC50 (purified human αvβ3; Example 2, PEG-linked ligands, averages of at least three determinations, read-out: In vitro EL1SA IC50): 22.3 nM
- IC50 (purified human αvβ3; [3]): 11 nM
